Reference: patent US11185074B2, “Microbiocidal quinoline (thio)carboxamide derivatives” (SYNGENTA PARTICIPATIONS AG, priority 2017, dated 2021)

Key:
[1] = test system: Magnaporthe grisea (Pyricularia oryzae); experiment: microbe, parasite or virus in culture; format: cell-based; conditions: 72 h, read-out: control of Magnaporthe grisea
Fusarium culmorum [2] = experiment: whole plant or invertebrate; format: in vivo, Fusarium culmorum on wheat spikelets cv. Monsun; conditions: in Triticum aestivum, read-out: control of Fusarium culmorum
Fusarium culmorum [3] = experiment: microbe, parasite or virus in culture; format: cell-based; conditions: read-out: control of Fusarium culmorum
[4] = test system: Glomerella lagenarium (Colletotrichum lagenarium); experiment: Glomerella lagenarium (Colletotrichum lagenarium) / liquid culture (anthracnose); format: cell-based; conditions: Colletotrichum orbiculare; 20 ppm; liquid culture, inhibition of growth photometrically 3-4 days after application; compared to untreated control; read-out: control of Glomerella lagenarium
[5] = test system: Monographella nivalis (Microdochium nivale); experiment: Monographella nivalis (Microdochium nivale) / liquid culture (foot rot cereals); format: cell-based; conditions: 96 h, inhibition of growth photometrically 4-5 days after application, compared to untreated control
[6] = test system: Botryotinia fuckeliana (Botrytis cinerea); experiment: Botryotinia fuckeliana (Botrytis cinerea) / liquid culture (gray mould); format: cell-based; conditions: 72 h, 20 ppm, liquid culture, inhibition of growth photometrically 3-4 days after application, compared to untreated control, read-out: control of Botryotinia fuckeliana
[7] = test system: Gibberella zeae (Fusarium graminearum); experiment: whole plant or invertebrate; format: in vivo; conditions: in Triticum aestivum, 144 h, read-out: control of Gibberella zeae
[8] = test system: Magnaporthe grisea (Pyricularia oryzae); experiment: whole plant or invertebrate; format: in vivo; conditions: foliar, read-out: control of Magnaporthe grisea
Sclerotinia sclerotiorum = Sclerotinia sclerotiorum / liquid culture (cottony rot); conditions: 72 h, read-out: control of Sclerotinia sclerotiorum
Protocol: Sclerotinia sclerotiorum/Liquid Culture (Cottony Rot)
Mycelia fragments of a newly grown liquid culture of the fungus are directly mixed into nutrient broth (Vogels broth). After placing a (DMSO) solution of test compound into a microtiter plate (96-well format) the nutrient broth containing the fungal material is added. The test plates are incubated at 24° C. and the inhibition of growth is determined photometrically 3-4 days after application.

For CC1(C[C@@](C)(CC(F)(F)F)NC(=O)c2cnc3c(F)cccc3c2)CC1 [F-2, 8-fluoro-N-[(1S)-3,3,3-trifluoro-1-methyl-1-[(1-methylcyclo-propyl)meth-yl]propyl]quinoline-3-carboxamide], which inhibition of growth at 20 ppm [1] is on record?
The inhibition of growth at 20 ppm was no less than 80%.

What about the pest or weed control at 200 ppm (Fusarium culmorum [2]) of the same molecule?
The pest or weed control at 200 ppm was no less than 80%.

And the inhibition of growth at 20 ppm (Fusarium culmorum [3])?
Its inhibition of growth at 20 ppm is no less than 80%.

What about the inhibition of growth at 20 ppm [4] of the same molecule?
Its inhibition of growth at 20 ppm is no less than 80%.

And the inhibition of growth at 20 ppm [5]?
The inhibition of growth at 20 ppm was no less than 80%.

And the inhibition of growth at 20 ppm [6]?
The inhibition of growth at 20 ppm was no less than 80%.

What about the pest or weed control at 200 ppm [7] of the same molecule?
The pest or weed control at 200 ppm was no less than 80%.

What about the pest or weed control at 200 ppm [8] of the same molecule?
The pest or weed control at 200 ppm was no less than 80%.

With CC(CC1CCCC1)(CC(F)(F)F)NC(=O)c1cnc2c(F)cccc2c1 (centres unmarked) [E-59] as the molecule, how does the melting point read?
The melting point was 100 to 102 °C.

And the inhibition of growth at 20 ppm (Sclerotinia sclerotiorum)?
The inhibition of growth at 20 ppm was no less than 80%.

And the inhibition of growth at 20 ppm [1]?
The inhibition of growth at 20 ppm was no less than 80%.

And the pest or weed control at 200 ppm (Fusarium culmorum [2])?
The pest or weed control at 200 ppm was no less than 80%.

And the inhibition of growth at 20 ppm (Fusarium culmorum [3])?
The inhibition of growth at 20 ppm was no less than 80%.

What about the inhibition of growth at 20 ppm [4] of the same molecule?
The inhibition of growth at 20 ppm was no less than 80%.

What about the inhibition of growth at 20 ppm [5] of the same molecule?
The inhibition of growth at 20 ppm was no less than 80%.

And the inhibition of growth at 20 ppm [6]?
Its inhibition of growth at 20 ppm is no less than 80%.

What about the pest or weed control at 200 ppm [7] of the same molecule?
Its pest or weed control at 200 ppm is no less than 80%.

What about the pest or weed control at 200 ppm [8] of the same molecule?
The pest or weed control at 200 ppm was no less than 80%.

For C=C(Cl)CC(C)(CC1CCCCC1)NC(=O)c1cnc2c(F)cccc2c1 (centres unmarked) [E-37], which melting point is on record?
Its melting point is 109 to 111 °C.

What about the inhibition of growth at 20 ppm (Sclerotinia sclerotiorum) of the same molecule?
The inhibition of growth at 20 ppm was no less than 80%.

And the inhibition of growth at 20 ppm [1]?
Its inhibition of growth at 20 ppm is no less than 80%.

And the pest or weed control at 200 ppm (Fusarium culmorum [2])?
The pest or weed control at 200 ppm was no less than 80%.

And the inhibition of growth at 20 ppm (Fusarium culmorum [3])?
The inhibition of growth at 20 ppm was no less than 80%.

And the inhibition of growth at 20 ppm [4]?
The inhibition of growth at 20 ppm was no less than 80%.

What about the inhibition of growth at 20 ppm [5] of the same molecule?
Its inhibition of growth at 20 ppm is no less than 80%.

What about the inhibition of growth at 20 ppm [6] of the same molecule?
The inhibition of growth at 20 ppm was no less than 80%.

And the pest or weed control at 200 ppm [8]?
Its pest or weed control at 200 ppm is no less than 80%.

What does the source list for CC(CC1CCCC1)(CC(F)(F)F)NC(=O)c1cnc2c(F)c(F)ccc2c1 (centres unmarked) [E-57]?
melting point: 115 to 116 °C; inhibition of growth at 20 ppm (Sclerotinia sclerotiorum): ≥ 80%; inhibition of growth at 20 ppm [1]: ≥ 80%; inhibition of growth at 20 ppm (Fusarium culmorum [3]): ≥ 80%; inhibition of growth at 20 ppm [4]: ≥ 80%; inhibition of growth at 20 ppm [5]: ≥ 80%; inhibition of growth at 20 ppm [6]: ≥ 80%; pest or weed control at 200 ppm [8]: ≥ 80%
